Experimental data as given in ChEMBL document CHEMBL1136764, “N6-cyclopentyl-2-(3-phenylaminocarbonyltriazene-1-yl)adenosine (TCPA), a very selective agonist with high affinity for the human adenosine A1 receptor” (J Med Chem, 2003).

Tests used:
[1] = target: T1, Adenosine receptor A2a (Homo sapiens, UniProt P29274); experiment: Binding affinity for human Adenosine A2A receptor using [3H]ZM-241385
[2] = target: T2, Adenosine receptor A3 (Homo sapiens, UniProt P0DMS8); experiment: Binding affinity for human Adenosine A3 receptor using [125 I]-IABMECA
T2 sequence (P0DMS8 whole entry): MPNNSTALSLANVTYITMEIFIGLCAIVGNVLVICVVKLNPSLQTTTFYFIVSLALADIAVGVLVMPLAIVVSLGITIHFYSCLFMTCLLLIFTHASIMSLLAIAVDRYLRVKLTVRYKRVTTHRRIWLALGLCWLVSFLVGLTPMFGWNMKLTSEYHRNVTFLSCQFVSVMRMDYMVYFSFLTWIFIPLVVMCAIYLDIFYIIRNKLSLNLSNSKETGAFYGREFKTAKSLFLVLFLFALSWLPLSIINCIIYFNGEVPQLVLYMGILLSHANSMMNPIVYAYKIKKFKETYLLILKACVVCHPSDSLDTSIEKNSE

[3] = target: T3, Adenosine receptor A1 (Homo sapiens, UniProt P30542)
T3 sequence (P30542 whole entry): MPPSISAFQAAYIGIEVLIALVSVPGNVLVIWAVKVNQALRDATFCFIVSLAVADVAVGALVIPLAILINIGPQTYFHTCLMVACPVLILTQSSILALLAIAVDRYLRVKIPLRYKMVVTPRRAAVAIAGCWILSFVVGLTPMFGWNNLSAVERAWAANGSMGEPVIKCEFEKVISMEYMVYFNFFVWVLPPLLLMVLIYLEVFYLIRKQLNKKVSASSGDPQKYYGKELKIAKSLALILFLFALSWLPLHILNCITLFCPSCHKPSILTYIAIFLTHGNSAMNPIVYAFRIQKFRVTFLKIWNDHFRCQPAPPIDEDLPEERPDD
Description: In vitro binding affinity towards human adenosine A1 receptor by [3H]DPCPX displacement.

[4] = target: T4, Adenosine receptor A2b (Homo sapiens) (UniProt P29275); experiment: Binding affinity for human adenosine A2B receptor using [3H]DPCPX at 10 uM as percent displacement
T4 sequence (whole entry): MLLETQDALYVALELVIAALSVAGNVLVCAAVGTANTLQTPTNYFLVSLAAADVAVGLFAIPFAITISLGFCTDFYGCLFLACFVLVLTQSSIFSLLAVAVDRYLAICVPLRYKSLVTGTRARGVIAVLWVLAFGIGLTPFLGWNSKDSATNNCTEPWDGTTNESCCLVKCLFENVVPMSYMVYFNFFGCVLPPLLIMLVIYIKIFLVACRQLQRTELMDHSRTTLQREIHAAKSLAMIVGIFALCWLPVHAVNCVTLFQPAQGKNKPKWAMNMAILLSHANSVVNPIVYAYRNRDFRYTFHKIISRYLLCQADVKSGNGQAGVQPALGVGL

[5] = target: T2, Adenosine receptor A3; experiment: Inhibition of [125 I]-IABMECA binding to human adenosine A3 receptor
[6] = target: T1, Adenosine receptor A2a
Description: Tested for binding affinity towards human adenosine A2A receptor using [3H]ZM-241385 as radioligand

[7] = target: T4, Adenosine receptor A2b (Homo sapiens); experiment: In vitro binding affinity towards human adenosine A2B receptor by [3H]DPCPX displacement at 10 uM.
[8] = target: T1, Adenosine receptor A2a; experiment: Percent displacement of [3H]ZM-241,385 from human adenosine A2A receptor at 10 uM
[9] = target: T5, Adenosine receptor A1 (Homo sapiens) (UniProt P30542); experiment: Percent displacement of [3H]DPCPX from human adenosine A1 receptor at 10 uM
T5 sequence (whole entry): T3 sequence (P30542 whole entry)

[10] = target: T5, Adenosine receptor A1 (Homo sapiens); experiment: Relative potency for human adenosine A1 receptor (Ki value)
[11] = target: T6, Adenosine receptor A3 (Homo sapiens) (UniProt P0DMS8); experiment: Relative potency for human adenosine A3 receptor (Ki value)
T6 sequence (whole entry): T2 sequence (P0DMS8 whole entry)

[12] = target: Adenosine receptors; A1 & A3 (Homo sapiens) (UniProt P30542+P0DMS8); experiment: Selectivity for adenosine A1 and A3 receptors; assay type: protein assay
[13] = target: T3, Adenosine receptor A1; experiment: Inhibition of cAMP formation in CHO cells expressing human adenosine A1 receptor; assay type: cell-based
[14] = target: T6, Adenosine receptor A3 (Homo sapiens); experiment: Binding affinity for human adenosine A3 receptor using [125 I]-IABMECA; insoluble
[15] = target: T5, Adenosine receptor A1 (Homo sapiens); experiment: Binding affinity for human adenosine A1 receptor using [3H]DPCPX; insoluble
[16] = target: T1, Adenosine receptor A2a; experiment: Binding affinity for human adenosine A2A receptor using [3H]ZM-241385; insoluble
[17] = target: T4, Adenosine receptor A2b (Homo sapiens); experiment: Percent displacement of [3H]DPCPX from human adenosine A2B receptor at 10 uM; insoluble

T1 sequence (P29274 whole entry): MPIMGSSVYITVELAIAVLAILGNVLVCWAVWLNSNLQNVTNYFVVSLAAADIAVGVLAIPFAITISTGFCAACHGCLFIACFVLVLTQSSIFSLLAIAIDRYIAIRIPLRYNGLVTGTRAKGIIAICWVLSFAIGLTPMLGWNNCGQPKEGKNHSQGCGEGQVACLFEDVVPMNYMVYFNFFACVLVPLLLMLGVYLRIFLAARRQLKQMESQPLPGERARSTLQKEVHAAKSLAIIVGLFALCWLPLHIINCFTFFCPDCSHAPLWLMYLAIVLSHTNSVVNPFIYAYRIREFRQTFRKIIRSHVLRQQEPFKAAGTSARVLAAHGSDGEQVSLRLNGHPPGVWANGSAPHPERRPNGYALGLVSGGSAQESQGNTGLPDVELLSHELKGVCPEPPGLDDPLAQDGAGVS

Row | Ki [1] [nM] | Ki [2] [nM] | Ki [3] [nM] | Ki [5] [nM] | Ki [6] [nM] | Displacement [7] [%] | SMILES | other results
1 | 1000 | 190 | 1900 | – | – | – | Nc1nc(/N=N/NC(=O)c2ccccc2)nc2c1ncn2[C@@H]1O[C@H](CO)[C@@H](O)[C@H]1O | Displacement [4]: 8%
2 | 180 | 110 | – | – | – | – | Nc1nc(/N=N/c2ccccc2)nc2c1ncn2[C@@H]1O[C@H](CO)[C@@H](O)[C@H]1O | Displacement [4]: 11%
3 | – | 59 | 15 | – | – | – | Nc1nc(N=NNC(=O)Nc2cccc(Cl)c2)nc2c1ncn2C1O[C@H](CO)[C@@H](O)[C@H]1O (some centres undefined) | –
4 | 19 | 113 | 45 | – | – | 15 | CCNC(=O)/N=N/Nc1nc(N)c2ncn([C@@H]3O[C@H](CO)[C@@H](O)[C@H]3O)c2n1 | –
5 | – | – | 23 | 179 | 45 | 30 | Nc1nc(/N=N/NC(=O)Nc2ccccc2Cl)nc2c1ncn2[C@@H]1O[C@H](CO)[C@@H](O)[C@H]1O | –
6 | – | – | – | – | – | 6 | Nc1nc(/N=N/NC(=O)Oc2ccccc2)nc2c1ncn2C1O[C@H](CO)[C@@H](O)[C@H]1O (some centres undefined) | Displacement [8]: 38.9%; Displacement [9]: 43%
7 | – | – | 2.8 | 600 | 210 | 10 | O=C(N/N=N/c1nc(NC2CCCC2)c2ncn([C@@H]3O[C@H](CO)[C@@H](O)[C@H]3O)c2n1)Nc1ccccc1 | Relative potency [10]: 1; Relative potency [11]: 1; Selectivity [12]: 214; IC50 [13]: 1.5 nM
8 | – | – | 20 | 81 | 125 | 18 | COc1ccccc1NC(=O)/N=N/Nc1nc(N)c2ncn([C@@H]3O[C@H](CO)[C@@H](O)[C@H]3O)c2n1 | –
9 | – | – | – | – | – | 64 | Nc1nc(/N=N/NC(=O)Nc2cccc(Cl)c2)nc2c1ncn2C1O[C@H](CO)[C@@H](O)[C@H]1O (some centres undefined) | Displacement [8]: 29.9%
10 | – | – | – | – | – | – | Nc1nc(/N=N/NC(=O)Nc2cccc(C(F)(F)F)c2)nc2c1ncn2C1O[C@H](CO)[C@@H](O)[C@H]1O (some centres undefined) | Other [14]: Insoluble; Other [15]: Insoluble; Other [16]: Insoluble; Other [17]: Insoluble
11 | 88 | 209 | 140 | – | – | 9 | NC(=O)/N=N/Nc1nc(N)c2ncn([C@@H]3O[C@H](CO)[C@@H](O)[C@H]3O)c2n1 | –
12 | 720 | 580 | – | – | – | – | Nc1nc(N=O)nc2c1ncn2[C@@H]1O[C@H](CO)[C@@H](O)[C@H]1O | Displacement [9]: 40%; Displacement [4]: 14%
13 | – | – | 204 | 175 | – | 10 | NC(=O)/N=N/Nc1nc(Nc2ccccc2)c2ncn([C@@H]3O[C@H](CO)[C@@H](O)[C@H]3O)c2n1 | Displacement [8]: 17.7%
14 | – | – | – | – | 639 | – | OC[C@H]1O[C@@H](n2cnc3c(NC4CCCC4)nc(Cl)nc32)[C@H](O)[C@@H]1O | –
15 | – | 39 | 15 | – | – | 21 | Nc1nc(/N=N/NC(=O)Nc2ccc(Cl)cc2)nc2c1ncn2[C@@H]1O[C@H](CO)[C@@H](O)[C@H]1O | Displacement [8]: 4.4%
16 | – | – | 3.1 | 140 | 980 | 10 | O=C(N/N=N/c1nc(NCC(c2ccccc2)c2ccccc2)c2ncn([C@@H]3O[C@H](CO)[C@@H](O)[C@H]3O)c2n1)Nc1ccccc1 | –
17 | – | – | – | 577 | – | – | Nc1nc(NN=NC(=O)Oc2ccccc2)nc2c1ncn2C1O[C@H](CO)[C@@H](O)[C@H]1O (some centres undefined) | –

Row | SMILES | Ki [1] [nM] | Ki [2] [nM] | Ki [3] [nM] | Ki [5] [nM] | Ki [6] [nM] | Displacement [7] [%] | other results
18 | Nc1nc(/N=N/NC(=O)NCc2ccccc2)nc2c1ncn2[C@@H]1O[C@H](CO)[C@@H](O)[C@H]1O | – | – | 42 | 147 | 25 | 9 | –
19 | Nc1nc(/N=N/NC(=O)Nc2ccccc2)nc2c1ncn2[C@@H]1O[C@H](CO)[C@@H](O)[C@H]1O | 25 | 110 | 6.1 | – | – | 54 | –
20 | COc1ccc(NC(=O)/N=N/Nc2nc(N)c3ncn([C@@H]4O[C@H](CO)[C@@H](O)[C@H]4O)c3n2)cc1 | – | – | 20 | 73 | 25 | 15 | –
21 | Nc1nc(/N=N/NC(=O)Nc2nccs2)nc2c1ncn2[C@@H]1O[C@H](CO)[C@@H](O)[C@H]1O | – | – | 24 | 610 | 25 | 79 | –
22 | Nc1nc(/N=N/NC(=O)NC2CCCCC2)nc2c1ncn2[C@@H]1O[C@H](CO)[C@@H](O)[C@H]1O | 25 | 63 | 5.8 | – | – | 6 | –
23 | O=C(N/N=N/c1nc(Nc2ccccc2)c2ncn([C@@H]3O[C@H](CO)[C@@H](O)[C@H]3O)c2n1)Nc1ccccc1 | – | – | 430 | 90 | 24.3 | 9 | –
